Measured values taken from ChEMBL document CHEMBL2429854, “Influences of hydrocarbon linkers on the receptor binding affinities of gonadotropin-releasing hormone peptides” (Bioorg Med Chem Lett, 2013).

Tests used:
[1] = molecular target: T1, Gonadotropin-releasing hormone receptor (Homo sapiens) (UniProt P30968); test: Displacement of [111In]-DOTA-Aun-(D-Lys6-GnRH) from human GnRH receptor after 3 hrs by gamma-counting; settings: concentration not given here
T1 sequence (whole entry): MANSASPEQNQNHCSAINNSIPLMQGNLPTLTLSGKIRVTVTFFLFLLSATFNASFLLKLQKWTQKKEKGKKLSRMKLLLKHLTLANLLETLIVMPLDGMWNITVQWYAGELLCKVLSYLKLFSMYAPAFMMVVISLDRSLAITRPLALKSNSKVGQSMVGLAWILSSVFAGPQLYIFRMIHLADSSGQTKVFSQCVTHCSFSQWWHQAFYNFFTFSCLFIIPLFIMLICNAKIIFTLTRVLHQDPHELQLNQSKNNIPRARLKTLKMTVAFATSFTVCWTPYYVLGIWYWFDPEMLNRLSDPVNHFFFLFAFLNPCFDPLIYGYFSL

[2] = molecular target: T2, Gonadotropin-releasing hormone receptor (Homo sapiens, UniProt P30968); test: Displacement of [125I]-[DTrp6]-LH-RH from human GnRH receptor after 3 hrs by gamma counting
T2 sequence (P30968 whole entry): T1 sequence (whole entry)

Compound	inhibition [1] [%]	IC50 [2] [nM]
CC(C)C[C@H](NC(=O)[C@@H](CCCCNC(=O)CCCCCCCCCCNC(=O)CN1CCN(CC(=O)O)CCN(CC(=O)O)CCN(CC(=O)O)CC1)NC(=O)[C@H](Cc1ccc(O)cc1)NC(=O)[C@H](CO)NC(=O)[C@H](Cc1c[nH]c2ccccc12)NC(=O)[C@H](Cc1cnc[nH]1)NC(=O)[C@@H]1CCC(=O)N1)C(=O)N[C@@H](CCCNC(=N)N)C(=O)N1CCC[C@H]1C(=O)NCC(N)=O	85	–
CC(C)C[C@H](NC(=O)[C@@H](CCCCNC(=O)CCCNC(=O)CN1CCN(CC(=O)O)CCN(CC(=O)O)CCN(CC(=O)O)CC1)NC(=O)[C@H](Cc1ccc(O)cc1)NC(=O)[C@H](CO)NC(=O)[C@H](Cc1c[nH]c2ccccc12)NC(=O)[C@H](Cc1cnc[nH]1)NC(=O)[C@@H]1CCC(=O)N1)C(=O)N[C@@H](CCCN=C(N)N)C(=O)N1CCC[C@H]1C(=O)NCC(N)=O	–	134
